Assay results from patent US7507568B2, “Three dimensional coordinates of HPTPbeta” (The Proctor & Gamble Company, priority 2002, dated 2009).

Target: T1, PTPbeta catalytic domain [SEQ ID NO: 7] (Homo sapiens, UniProt P23467)
T1 construct: made in house; host or cells: Escherichia coli BL21-RIL
Assay: Inhibition of HPTPbeta (relative inhibitor potency, stated in words)
Format: biochemical
Conditions: qualitative comparison; no numerical values or assay method printed

T1 sequence (P23467 with tags, fused parts or gaps): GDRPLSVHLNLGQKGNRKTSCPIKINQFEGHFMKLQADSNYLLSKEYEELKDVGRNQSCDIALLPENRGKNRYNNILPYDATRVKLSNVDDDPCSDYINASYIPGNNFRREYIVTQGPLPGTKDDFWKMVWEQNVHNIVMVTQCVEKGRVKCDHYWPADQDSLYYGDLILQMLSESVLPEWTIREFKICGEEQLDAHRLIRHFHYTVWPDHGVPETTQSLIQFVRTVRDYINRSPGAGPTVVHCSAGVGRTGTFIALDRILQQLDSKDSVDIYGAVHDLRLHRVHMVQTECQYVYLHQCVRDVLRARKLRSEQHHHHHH

Compound: CNC(=O)[C@H](Cc1ccc(NS(=O)(=O)O)cc1)NC(=O)C(Cc1ccc(O)cc1)NC(=O)OC(C)(C)C (stereo in doubt) [Compound 2, {2-(4-Hydroxy-phenyl)-1-[1-methylcarbamoyl-2-(4-sulfoamino-phenyl)-ethylcarbamoyl]-ethyl}-carbamic acid tert-butyl ester]
- inhibitor potency relative to Compound 1: more potent inhibitor than Compound 1
